Experimental data published in patent US7553823B2, “C-pyrazole A2A receptor agonists” (CV Therapeutics, Inc., priority 1999, dated 2009).
Like-named read-outs stand apart in the source and are kept apart here. Each block holds one compound with its values, some of them ahead of it.

Assays:
[1] = tested on: A2A AdoR; assay: Coronary blood flow and reversal time of coronary vasodilation in open-chest anesthetized pigs; conditions: pig
Procedure: Farm pigs weighing 22-27 kg were used in this study. […] In addition, animals were used in accordance with the guidelines of the University of Kentucky Institutional Animal Care and Use Protocol.
Anesthesia was anesthetized with ketamine (20 mg/kg, i.m.) and sodium pentobarbital (15-18 mg/kg i.v.). Anesthesia was maintained with additional sodium pentobarbital (1.5-2 mg/kg, i.v.) every 15-20 minutes. Ventilation was maintained via a tracheotomy using a mixture of room air and 100% O2. Tidal volume, respiratory rate and fraction of O2 in inspired air were adjusted to maintain normal arterial blood gas (ABG) and pH values. […] Lactate Ringers solution was administered via an ear or femoral vein, at 5-7 ml/kg/min after a initial bolus of 300-400 ml. A catheter was inserted into the femoral artery to monitor arterial blood pressure and to obtain ABG samples.
The heart was exposed through a median sternotomy, and suspended in a pericardial cradle. Left ventricular pressure (LVP) was measured with a 5F high fidelity pressure sensitive tip transducer (Millar Instruments, Houston, Tex.) placed in the left ventricular cavity via the apex and secured with a purse string suture. A segment of the left anterior descending coronary artery (LAD), proximal to the origin of the first diagonal branch, was dissected free of, surrounding tissue. A transmit time perivascular flow probe (Transonic Systems Inc., Ithaca, N.Y.) was placed around this segment to measure coronary blood flow (CBF). Proximal to the flow probe a 24 g modified angiocatheter was inserted for intracoronary infusions. […] A2A AdoR agonists were dissolved in DMSO to produce stock concentrations of 1-5 mM, which were diluted in 0.9% saline and infused at rates of 1-1.5 ml/min. The A2A AdoR agonists were administered intracoronary. To maintain blood pressure constant, phenylephrine was administered intravenously. The phenylephrine stock solution (30 mM) was prepared in distilled water.
Prior to initiating the experiment, a 30-minute stabilization period followed the completion of all instrumentation. After obtaining the baseline hemodynamic data the first intracoronary infusion of an A2A ADOR agonist was initiated. Infusions were maintained for 4-5 minutes to allow LAD CBF to reach a steadystate, after which the infusion was terminated. The time to recovery of 50% (t 0.5) and 90% (t 0.9) of baseline CBF were recorded. Ten to 15 minutes after CBF returned to pre-drug values a second infusion with a different agonist was started. […] The effect of a maximum of three different agonists was determined in each experiment.

[2] = biological target: T1, A1 AdoR (Rattus norvegicus, UniProt P25099); assay: A-V nodal conduction time (negative dromotropic effect) in rat isolated perfused hearts; conditions: Compound 18 0.1-30 μM, CVT510 100-400 nM
T1 construct: from tissue; host or cells: Sprague Dawley rat isolated perfused heart
T1 sequence (P25099 1-326): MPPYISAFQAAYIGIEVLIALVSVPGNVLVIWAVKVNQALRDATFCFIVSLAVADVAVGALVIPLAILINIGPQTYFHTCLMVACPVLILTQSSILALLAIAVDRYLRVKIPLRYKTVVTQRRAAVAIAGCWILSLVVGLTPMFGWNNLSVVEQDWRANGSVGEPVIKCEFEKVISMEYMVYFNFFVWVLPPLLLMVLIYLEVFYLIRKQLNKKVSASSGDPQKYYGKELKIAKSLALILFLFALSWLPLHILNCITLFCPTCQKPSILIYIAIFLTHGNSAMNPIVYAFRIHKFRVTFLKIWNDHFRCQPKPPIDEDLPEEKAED
Procedure: In experiments in which A1 adenosine receptor-mediated negative dromotropic effect was measured, atrial and ventricular surface electrograms were recorded during constant atrial pacing. The effect of various adenosine receptor agonists on atrioventricular conduction time was determined as described previously by Jenkins and Belardinelli Circ. Res. 63: 97-116 (1988).
Rats and guinea pigs, of either sex weighing from 230 to 260 grams and 300 to 350 grams, respectively, were used in this study. Animals were anesthetized by peritoneal injection of a cocktail containing ketamine and xylazine (ketamine 100 mg, xylazine 20 mg/ml). The chest was opened and the heart quickly removed. The heart was briefly rinse in ice-cold Krebs-Henseleit solution (see below), and the aorta cannulated. […]
A1 adenosine receptor-mediated depression of A-V nodal conduction time (negative dromotropic effect) was measured. Atrial and ventricular surface electrograms in rats and H is bundle electrogram in guinea pigs, were recorded during constant atrial pacing. The effects of Compound 18 on atrioventricular conduction time and stimulus-to-His-bundle (S-H interval) were determined as described previously by Jenkins and Belardinelli (1988).
The effects of Compound 18 on coronary conductance (A2A effect) and atrioventricular conduction time or stimulus-to-His-bundle (S-H) interval (A1 effect) was then determined. […]

[3] = biological target: A2A AdoR (Rattus norvegicus, UniProt P30543); assay: Increase of coronary conductance in rat isolated perfused hearts
Procedure: (§1) Adult Sprague Dawley rats and Hartley guinea pigs of either sex weighing from 230 to 260 grams and 300 to 350 grams, respectively were used in this study. Animals were anesthetized by peritoneal injection of a cocktail containing ketamine and xylazine (ketamine 100 mg, xylazin 20 mg/ml). The chest was opened and the heart quickly removed. The heart was briefly rinse in ice-cold Krebs-Henseleit solution (see below), and the aorta cannulated. […] The heart was electrically paced at a fixed cycle length of 340 ms (250 beats/min) using a bipolar electrode place on the left atrium. The electrical stimuli were generated by a Grass stimulator (Model S48, W. Warwick, R.I.) and delivered through a Stimuli Isolation Unit (Model SIU5, Astro-Med, Inc., NY) as square-wave pulses of 3-msec in duration and amplitude of at least twice the threshold intensity.
Coronary perfusion pressure (CPP) was measured using a pressure transducer, connected to the aortic cannula via a T-connector positioned approximately 3 cm above the heart. Coronary perfusion pressure was monitored throughout the experiment and recorded either on a chart recorder (Gould Recorder 2200S) or a computerized recording system (PowerLab/4S, ADinstruments Pty Ltd, Australia). Only hearts with CPP ranging from 60 to 85 mmHg (in the absence of drugs) were used in the study.
One concentration was made from the stock solution by dilution into saline to yield solution of either 2×10^−4 or 2×10^−5 M. These solutions were injected into the perfusion line of the apparatus as boluses of 20 μl. In some experiments the solutions were placed into a 30 ml glass syringe and the drugs were infused at rates necessary to achieve the desired perfusate concentrations (e.g, 10, 100 nM, etc).
Hearts were instrumented for continuous recording of coronary perfusion pressure (A2A response) and atrioventricular (A-V) conduction time or S-H interval (A1 response).

[4] = biological target: human A2A AdoR (Homo sapiens, UniProt P29274); assay: Competition binding, [3H]ZM241385 binding sites on HEK-hA2AAR cell membranes; conditions: for Ki: HEK-hA2AAR Cells
Procedure: To make membranes, cells were detached from the culture plates into ice-cold 50 mmol/L Tris-HCI buffer (pH7.4). The cell suspensions were homogenized with Polytron at setting 4 for 30 seconds, and spun at 48,000 g for 15 minutes. The pellets were washed three times by re-suspension in ice-cold Tris-HCI buffer and centrifugation. The final pellet was re-suspended in a small volume of Tris-HCI, aliquoted and frozen at −80° C. until used for receptor binding assays. The protein concentration of membrane suspensions was determined using the Bradford method (Bio-Rad) with bovine serum as standards.
At the end of incubation, bound and free radioligands were separated by filtration through Whatman GF/C glass fiber filters using a Brandel tissue harvester (Gaithersburg, Md.). Triplicate determinations were performed for each concentration of the competing agent.
The affinity (Ki) of various CVT compounds for the A1 and A2A adenosine receptor were determined by their potency to compete for [^3H]CPX (A1) or [^3H]ZM241385 (A2A) binding sites on membranes derived from CHO-hA1AdoR, PC12 or HEK-HA2AAdoR cells.

[5] = biological target: A2A adenosine receptor (Rattus norvegicus, UniProt P30543); assay: Reversal time of coronary vasodilation after bolus injection in rat isolated perfused hearts
Procedure: Animals were anesthetized by peritoneal injection of a cocktail containing ketamine and xylazine (ketamine 100 mg, xylazine 20 mg/ml). The chest was opened and the heart quickly removed. The heart was briefly rinse in ice-cold Krebs-Henseleit solution (see below), and the aorta cannulated. […] The heart was electrically paced at a fixed cycle length of 340 ms (250 beats/min) using a bipolar electrode place on the left atrium. The electrical stimuli were generated by a Grass stimulator (Model S48, W. Warwick, R.I) and delivered through a Stimuli Isolation Unit (Model SIU5, Astro-Med, Inc., NY) as square-wave pulses of 3 msec in duration and amplitude of at least twice the threshold intensity.
Coronary perfusion pressure (CPP) was measured using a pressure transducer, connected to the aortic cannula via a T-connector positioned approximately 3 cm above the heart. Coronary perfusion pressure was monitored throughout the experiment and recorded either on a chart recorder (Gould Recorder 2200S) or a computerized recording system (PowerLab/4S, ADInstruments Pty Ltd, Australia). Only hearts with CPP ranging from 60 to 85 mmHg (in the absence of drugs) were used in the study.
Protocol: Bolus injections. […] The times to 50% (t 0.5) and 90% (t 0.9) reversal of the decrease in CPP were measured. Each heart was exposed to a maximum of three vasodilators.

[6] = biological target: T2, human A1 AdoR (Homo sapiens, UniProt P30542); assay: Competition binding, [3H]DPCPX binding sites on CHO-hA1AdoR cell membranes; conditions: Gpp(NH)p 100 μM
T2 construct: expressed in transfected cells
T2 sequence (P30542 1-326): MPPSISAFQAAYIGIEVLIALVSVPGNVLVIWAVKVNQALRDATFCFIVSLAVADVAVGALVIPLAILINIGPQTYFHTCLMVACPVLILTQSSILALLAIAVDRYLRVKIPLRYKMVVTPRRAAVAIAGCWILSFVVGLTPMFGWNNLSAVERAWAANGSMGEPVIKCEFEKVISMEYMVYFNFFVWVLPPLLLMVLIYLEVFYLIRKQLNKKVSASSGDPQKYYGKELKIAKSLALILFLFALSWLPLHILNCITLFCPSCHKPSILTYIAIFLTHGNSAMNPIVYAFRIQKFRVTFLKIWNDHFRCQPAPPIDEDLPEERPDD

[7] = biological target: A2A receptor (Sus scrofa, UniProt K9IW67); assay: Affinity for the A2A receptor in a pig striatum membrane prep (displacement of tritiated ZM 241385); type: binding
Procedure: Compounds of this invention were assayed to determine their affinity for the A2A receptor in a pig striatum membrane prep. Briefly, 0.2 mg of pig striatal membranes were treated with adenosine deaminase and 50 mM Tris buffer (pH=7.4) followed by mixing. […] After incubation at 23 C for 2 h, then the solutions were filtered using a membrane harvester using multiple washing of the membranes (3×). The filter disks were counted in scintillation cocktail affording the amount of displacement of tritiated ZM by the competitive binding compounds of this invention. Greater than a 5 point curve was used to generate IC50's and the number of experiments is indicated in the column marked in Table 1 below.

[8] = biological target: A2A AdoR (Cavia porcellus, UniProt P46616); assay: Increase of coronary conductance in guinea pig isolated perfused hearts
Procedure: as §1
Coronary perfusion pressure (CPP) was measured using a pressure transducer, connected to the aortic cannula via a T-connector positioned approximately 3 cm above the heart. Coronary perfusion pressure was monitored throughout the experiment and recorded either on a chart recorder (Gould Recorder 2200S) or a computerized recording system (PowerLab/4S, ADinstruments Pty Ltd, Australia). Only hearts with CPP ranging from 60 to 85 mmHg (in the absence of drugs) were used in the study. […]

[9] = intracoronary infusion 2 μg/kg/min
[10] = intracoronary infusion 30 μg/kg/min
[11] = pig striatal membranes, tritiated ZM 241385 2 nM, 23 C 2 h, read-out: A2a Ki
[12] = rat isolated perfused hearts, bolus into perfusion line
[13] = intracoronary infusion 1 μg/kg/min

Sequence of A2A AdoR (Rattus norvegicus, UniProt P30543) (P30543 whole entry, the tested form may be a part): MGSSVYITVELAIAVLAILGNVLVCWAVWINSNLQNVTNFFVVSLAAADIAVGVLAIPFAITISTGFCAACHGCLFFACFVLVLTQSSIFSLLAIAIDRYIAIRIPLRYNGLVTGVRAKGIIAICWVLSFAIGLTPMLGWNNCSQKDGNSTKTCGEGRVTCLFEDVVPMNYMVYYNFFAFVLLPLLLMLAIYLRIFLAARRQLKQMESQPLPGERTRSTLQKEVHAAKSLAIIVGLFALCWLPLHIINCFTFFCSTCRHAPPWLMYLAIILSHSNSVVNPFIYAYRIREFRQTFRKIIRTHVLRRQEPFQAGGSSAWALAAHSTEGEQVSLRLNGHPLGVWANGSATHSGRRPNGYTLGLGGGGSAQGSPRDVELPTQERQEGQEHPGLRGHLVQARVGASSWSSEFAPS
Sequence of A2A adenosine receptor (P30543 whole entry, the tested form may be a part): as above
Sequence of human A2A AdoR (P29274 whole entry, the tested form may be a part): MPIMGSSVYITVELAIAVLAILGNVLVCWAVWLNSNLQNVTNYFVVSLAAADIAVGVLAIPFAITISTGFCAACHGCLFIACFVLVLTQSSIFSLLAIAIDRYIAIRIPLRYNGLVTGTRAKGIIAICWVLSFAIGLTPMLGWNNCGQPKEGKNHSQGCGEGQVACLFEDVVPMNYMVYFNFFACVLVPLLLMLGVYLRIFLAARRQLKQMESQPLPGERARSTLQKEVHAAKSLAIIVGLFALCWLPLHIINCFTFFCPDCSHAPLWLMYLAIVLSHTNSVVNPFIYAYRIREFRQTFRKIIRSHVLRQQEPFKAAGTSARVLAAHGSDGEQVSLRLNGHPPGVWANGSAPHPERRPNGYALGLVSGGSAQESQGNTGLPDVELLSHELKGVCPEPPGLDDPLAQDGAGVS
Sequence of A2A receptor (K9IW67 1-409): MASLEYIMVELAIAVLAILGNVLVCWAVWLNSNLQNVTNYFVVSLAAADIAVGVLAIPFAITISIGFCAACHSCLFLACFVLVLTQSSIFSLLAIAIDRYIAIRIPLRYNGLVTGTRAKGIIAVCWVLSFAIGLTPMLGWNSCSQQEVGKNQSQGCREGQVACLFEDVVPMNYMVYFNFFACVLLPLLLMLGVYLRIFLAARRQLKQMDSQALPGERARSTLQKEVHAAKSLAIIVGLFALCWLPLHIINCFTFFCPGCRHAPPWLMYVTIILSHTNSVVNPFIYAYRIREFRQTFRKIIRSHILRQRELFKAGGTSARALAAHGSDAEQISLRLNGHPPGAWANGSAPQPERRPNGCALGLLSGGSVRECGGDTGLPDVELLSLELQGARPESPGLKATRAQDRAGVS
Sequence of A2A AdoR (Cavia porcellus, UniProt P46616) (P46616 whole entry, the tested form may be a part): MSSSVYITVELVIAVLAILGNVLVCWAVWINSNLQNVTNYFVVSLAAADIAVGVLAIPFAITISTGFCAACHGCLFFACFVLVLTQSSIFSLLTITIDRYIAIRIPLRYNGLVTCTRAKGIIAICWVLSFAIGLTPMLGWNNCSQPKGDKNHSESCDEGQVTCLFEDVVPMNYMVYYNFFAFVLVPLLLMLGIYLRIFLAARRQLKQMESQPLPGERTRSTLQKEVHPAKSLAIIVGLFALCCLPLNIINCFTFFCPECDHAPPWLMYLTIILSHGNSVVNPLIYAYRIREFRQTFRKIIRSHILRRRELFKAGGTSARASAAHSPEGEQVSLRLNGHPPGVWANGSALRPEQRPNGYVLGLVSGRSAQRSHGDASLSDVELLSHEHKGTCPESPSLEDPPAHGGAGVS

SMILES: CCNC(=O)[C@H]1O[C@@H](n2cnc3c(N)nc(NCCc4ccc(CCC(=O)O)cc4)nc32)[C@H](O)[C@@H]1O [CGS21680, reference compound]
- t0.5, time to 50% reversal of the increase in coronary blood flow [1, 9]: 9.7 ± 0.8 min
- t0.9, time to 90% reversal of the increase in coronary blood flow [1, 9]: 21.4 ± 0.8 min

SMILES: OC[C@H]1OC(n2cnc3c(N[C@@H]4CCOC4)ncnc32)[C@H](O)[C@@H]1O (stereo partly drawn) [CVT510, 2-{6-[((3R)oxolan-3-yl)amino]purin-9-yl}(4S,3R,5R)-5-(hydroxymethyl)oxolane-3,4-diol, reference compound]
- effect on A-V nodal conduction time [2]: significantly prolonged

SMILES: Nc1nc(-c2cnn(Cc3ccccc3)c2)nc2c1ncn2[C@@H]1O[C@H](CO)[C@@H](O)[C@H]1O [Compound 12, (4S,2R,3R,5R)-2-{6-amino-2-[1-benzylpyrazol-4-yl]purin-9-yl}-5-(hydroxymethyl)oxolane-3,4-diol]
- effect on coronary conductance [3]: concentration-dependent increase
- relative potency in increasing coronary conductance [3]: about as potent as adenosine
- Ki ([4]; Binding Affinity Ki): 13.7 µM
- Ki ([4]; Binding Affinity pKi ± SEM): 13.5 µM
- t 0.5, time to 50% reversal of the increase in coronary conductance [5]: 4.1 ± 0.3 min
- t 0.9, time to 90% reversal of the increase in coronary conductance [5]: 9.8 ± 1.4 min
- Ki ([6]; read-out: Binding Affinity Ki, CHO-hA1AR): 6.35 µM
- Ki ([6]; read-out: Binding Affinity pKi ± SEM, CHO-hA1AR (converted)): 6.03 µM
- Ki [7]: 6.67 ± 1.12 µM
- CBF ("Fold Increase") above baseline, maximal [1, 10]: 3.78 ± 0.70 fold
- t0.5, time to 50% reversal of the increase in coronary blood flow [1, 10]: 2.3 ± 0.6 min
- t0.9, time to 90% reversal of the increase in coronary blood flow [1, 10]: 9.6 ± 1.0 min

SMILES: CC(C)n1cc(-c2nc(N)c3ncn([C@@H]4O[C@H](CO[Si](C)(C)C(C)(C)C)[C@@H](O[Si](C)(C)C(C)(C)C)[C@H]4O[Si](C)(C)C(C)(C)C)c3n2)cn1 [Compound 16, 9-{(2R,3R,4R,5R)-3,4-bis(1,1,2,2-tetramethyl-1silapropoxy)-5-[(1,1,2,2-tetramethyl-1-silapropoxy)methyl]oxolan-2-yl}-2-[1-(1-methylethyl)pyrazol 4-yl]purine-6-ylamine]
- A2A affinity ([4]; conclusion of Example 5): low affinity A2A agonist

- Ki [7, 11]: > 10 µM
SMILES: Cn1cc(-c2nc(N)c3ncn([C@@H]4O[C@H](CO)[C@@H](O)[C@H]4O)c3n2)cn1 [Compound 19, (4S,2R,3R,5R)-2-[6-amino-2-(1-methylpyrazol-4-yl)purin-9-yl]-5-(hydroxymethyl)oxolane-3,4-diol]

- Ki [7, 11]: ~10 µM
SMILES: CC(C)n1cc(-c2nc(N)c3ncn([C@@H]4O[C@H](CO)[C@@H](O)[C@H]4O)c3n2)cn1 [Compound 20, (4S,2R,3R,5R)-2-{6-amino-2-[1-(methylethyl)pyrazol-4-yl]purin-9-yl}-5-(hydroxymethyl)oxolane-3,4-diol]

SMILES: Nc1nc(-c2cnn(CCCc3ccccc3)c2)nc2c1ncn2C1O[C@H](CO)[C@@H](O)[C@H]1O (stereo partly drawn) [Compound 21, (4S,2R,3R,5R)-2-{6-amino-2-[1-(3-phenylpropyl)pyrazolyl-4-yl]purin-9-yl}-5-(hydroxymethyl)oxolane-3,4-diol]
- t 0.5, time to 50% reversal of the increase in coronary conductance [5, 12]: 8.3 ± 0.4 min
- t 0.9, time to 90% reversal of the increase in coronary conductance [5, 12]: 12.6 ± 0.4 min
- Ki [7, 11]: 6.13 ± 0.582 µM

- Ki [7, 11]: 7.68 µM
SMILES: CC(C)(C)c1ccc(Cn2cc(-c3nc(N)c4ncn([C@@H]5O[C@H](CO)[C@@H](O)[C@H]5O)c4n3)cn2)cc1 [Compound 22, (4S,2R,3R,5R)-2-{6-amino-2-[1-(4-t-butylbenzyl)pyrazol-4-yl]purin-9-yl}-5-(hydroxymethyl)oxolane-3,4-diol]

- Ki [7, 11]: > 100 µM
SMILES: Nc1nc(-c2cn[nH]c2)nc2c1ncn2[C@@H]1O[C@H](CO)[C@@H](O)[C@H]1O [Compound 23, (4S,2R,3R,5R)-2-(6-amino-2-pyrazol-4-ylpurin-9-yl)-5-(hydroxymethyl)oxolane-3,4-diol]

- t 0.5, time to 50% reversal of the increase in coronary conductance [5, 12]: 28.6 ± 1.1 min
- t 0.9, time to 90% reversal of the increase in coronary conductance [5, 12]: 32.8 ± 3.1 min
SMILES: CCCCC#Cc1nc(N)c2ncn([C@@H]3O[C@H](C(=O)NCC)[C@@H](O)[C@H]3O)c2n1 [HENECA, reference compound]

SMILES: Nc1nc(N/N=C/C2CCCCC2)nc2c1ncn2[C@@H]1O[C@H](CO)[C@@H](O)[C@H]1O [WRC-0470, reference compound]
- EC50 [3]: 0.0006 ± 0.0002 µM
- effect on coronary conductance [3]: concentration-dependent increase
- t 0.5, time to 50% reversal of the increase in coronary conductance [5]: 21.9 ± 0.9 min
- t 0.9, time to 90% reversal of the increase in coronary conductance [5]: 27.9 ± 1.4 min
- EC50 [8]: 0.0024 ± 0.0011 µM
- t0.5, time to 50% reversal of the increase in coronary blood flow [1, 13]: 9.5 ± 0.8 min
- t0.9, time to 90% reversal of the increase in coronary blood flow [1, 13]: 22.5 ± 1.6 min

- t 0.5, time to 50% reversal of the increase in coronary conductance [5, 12]: 17.7 ± 1.0 min
- t 0.9, time to 90% reversal of the increase in coronary conductance [5, 12]: 28.5 ± 4.0 min
SMILES: CCCCCCC#Cc1nc(N)c2ncn([C@@H]3O[C@H](CO)[C@@H](O)[C@H]3O)c2n1 [YT-146, reference compound]
- CBF ("Fold Increase") above baseline, maximal [1, 13]: 3.44 ± 0.47 fold
- t0.9, time to 90% reversal of the increase in coronary blood flow [1, 13]: 32.9 ± 5.6 min
